PMC4082485, “The Rodin-Ohno hypothesis that two enzyme superfamilies descended from one ancestral gene: an unlikely scenario for the origins of translation that will not be dismissed” (Biology Direct, 2014)

Legend:
[1] = biological target: T1, TrpRS 46-residue peptide (46-mer, Class I ATP binding site) (Geobacillus stearothermophilus, UniProt P00953); assay: fluorescence titration of ATP with peptide (Mildvan assay)
T1 construct: gene trpS

[2] = biological target: T2, HisRS 46-residue peptide (46-mer, Class II ATP binding site) (Escherichia coli, UniProt P60906); assay: as above; conditions: pH 4.5; range printed jointly for the TrpRS and HisRS 46-mers, not assigned to either
T2 construct: gene hisS

HisRS Urzyme (HisRS 2) = biological target: T3, HisRS Urzyme (HisRS 2) (Escherichia coli, UniProt P60906); assay: Michaelis-Menten steady-state kinetics of amino acid activation; format: biochemical; conditions: ATP co-substrate; only kcat/KM free energies plotted
T3 construct: gene hisS; HisRS invariant core (Motifs 1 and 2, 122-residue base fragment); MBP fusion, TEV cleavage
T3 sequence (P60906 25-146): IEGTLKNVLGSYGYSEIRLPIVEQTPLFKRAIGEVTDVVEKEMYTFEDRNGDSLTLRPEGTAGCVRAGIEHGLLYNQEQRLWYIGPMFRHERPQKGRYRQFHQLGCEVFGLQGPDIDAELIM

T2 sequence (P60906 101-146): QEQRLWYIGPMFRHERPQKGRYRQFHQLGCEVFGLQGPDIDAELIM
T1 sequence (P00953 1-46 limits assumed): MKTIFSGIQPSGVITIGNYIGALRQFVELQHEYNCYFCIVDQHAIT

## Nc1ncnc2c1ncn2[C@@H]1O[C@H](COP(=O)(O)OP(=O)(O)OP(=O)(O)O)[C@@H](O)[C@H]1O [ATP]
[1]
  Kd: 10 to 65 µM
[2]
  Kd: 10 to 65 µM

## N[C@@H](Cc1cnc[nH]1)C(=O)O [histidine]
HisRS Urzyme (HisRS 2)
  Michaelis-Menten steady-state kinetics of amino acid activation: they both preferentially activate amino acids similar to the original substrate (i.e., Leu and His)
